{
  "source": "patent US20130096050A1",
  "about": "(Longevity Biotech, Inc., priority 2010, published 2013)",
  "key": {"VIPR1 (VPAC1)": {"target": "T1, VIPR1 (VPAC1) (Homo sapiens, UniProt P32241)", "T1 sequence (P32241 31-457)": "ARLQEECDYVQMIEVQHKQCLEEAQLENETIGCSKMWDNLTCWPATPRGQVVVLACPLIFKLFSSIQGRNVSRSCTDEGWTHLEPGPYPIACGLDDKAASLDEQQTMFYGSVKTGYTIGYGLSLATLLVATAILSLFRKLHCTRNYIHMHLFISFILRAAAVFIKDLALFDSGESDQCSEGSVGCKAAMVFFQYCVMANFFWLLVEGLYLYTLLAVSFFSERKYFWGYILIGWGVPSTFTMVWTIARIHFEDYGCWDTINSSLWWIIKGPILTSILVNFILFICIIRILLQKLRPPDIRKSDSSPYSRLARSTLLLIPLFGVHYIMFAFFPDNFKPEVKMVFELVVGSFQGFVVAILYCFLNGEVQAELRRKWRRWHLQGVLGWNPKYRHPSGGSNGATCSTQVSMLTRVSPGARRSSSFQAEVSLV", "assay": "cAMP Hunter cell line functional assay, agonist mode (DiscoveRx HitHunter cAMP XS+)", "format": "cell-based", "conditions": "for Mean RLU: cAMP, VIPR1 cells", "protocol": "(§1) Once it was established that the cells were healthy and growing normally, cells were passaged from flasks using cell dissociation reagent buffer and seeded into white walled clear bottom 384-well microplates for compound profiling. For profiling, cells were seeded at a density of 10,000 cells per well in a total volume of 20 μL and were allowed to adhere and recover overnight prior to compound addition. cAMP modulation was determined using the DiscoveRx HitHunter cAMP XS+ assay.\n(§2) For profiling compound in agonist mode, the cells were incubated in the presence of compound at 37° C. for 30 minutes. […] After appropriate compound incubation, assay signal was generated through incubation with DiscoverX lysis cocktail according to the manufacturers standard protocol. Dose curves were plotted using GraphPad Prism or Activity Base. Percentage activity is calculated using the following formula:\n(§3) % Activity=100%×(mean RLU of test sample−mean RLU of vehicle control)/(mean RLU of MAX control−mean RLU of vehicle control)."}, "VIPR2 (VPAC2)": {"target": "T2, VIPR2 (VPAC2) (Homo sapiens, UniProt P41587)", "T2 construct": "host or cells: cAMP Hunter cell line (CHO-K1 is named only in the prophetic b955)", "T2 sequence (P41587 24-438)": "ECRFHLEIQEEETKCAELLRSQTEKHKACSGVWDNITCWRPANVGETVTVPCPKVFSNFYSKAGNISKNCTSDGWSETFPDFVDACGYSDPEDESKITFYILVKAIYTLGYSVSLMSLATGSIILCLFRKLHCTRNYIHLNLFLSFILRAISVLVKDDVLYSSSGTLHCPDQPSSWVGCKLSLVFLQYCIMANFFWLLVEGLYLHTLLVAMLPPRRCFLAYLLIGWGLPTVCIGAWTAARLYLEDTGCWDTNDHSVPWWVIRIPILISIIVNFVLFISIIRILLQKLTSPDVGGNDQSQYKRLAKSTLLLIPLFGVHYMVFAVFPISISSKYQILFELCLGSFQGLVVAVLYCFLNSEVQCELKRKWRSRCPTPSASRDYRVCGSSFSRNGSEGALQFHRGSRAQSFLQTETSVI", "assay": "cAMP Hunter cell line functional assay, agonist mode (DiscoveRx HitHunter cAMP XS+)", "format": "cell-based", "conditions": "FIG. 3", "protocol": "as §1, §2, §3"}, "[1]": {"conditions": "humans; cited from earlier work"}, "amylin receptor": {"target": "amylin receptor", "conditions": "read-out: IC50, amylin receptor antagonist; cited from earlier work"}, "calcitonin receptors": {"tested_on": "calcitonin receptors", "conditions": "amylin receptor vs calcitonin receptors; cited from earlier work"}, "CGRP receptors": {"target": "CGRP receptors (Homo sapiens, UniProt O60894+Q16602)", "sequence (Q16602 23-461)": "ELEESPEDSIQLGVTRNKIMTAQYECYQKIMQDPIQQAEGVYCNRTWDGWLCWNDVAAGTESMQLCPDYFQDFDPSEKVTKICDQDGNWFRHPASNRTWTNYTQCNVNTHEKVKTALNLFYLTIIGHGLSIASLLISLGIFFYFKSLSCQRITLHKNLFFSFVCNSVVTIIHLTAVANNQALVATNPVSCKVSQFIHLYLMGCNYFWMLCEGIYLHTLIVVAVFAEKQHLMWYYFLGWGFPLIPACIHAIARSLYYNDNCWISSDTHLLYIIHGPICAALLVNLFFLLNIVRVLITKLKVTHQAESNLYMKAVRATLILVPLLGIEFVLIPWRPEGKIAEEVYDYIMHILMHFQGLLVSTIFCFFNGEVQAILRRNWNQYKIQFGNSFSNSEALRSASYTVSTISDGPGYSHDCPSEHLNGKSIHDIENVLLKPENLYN", "sequence (O60894 27-148 partner)": "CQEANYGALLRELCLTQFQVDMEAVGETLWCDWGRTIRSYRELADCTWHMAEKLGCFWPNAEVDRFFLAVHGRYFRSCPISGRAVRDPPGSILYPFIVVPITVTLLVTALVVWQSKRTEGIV", "conditions": "amylin receptor vs CGRP receptors; cited from earlier work"}, "neurotensin receptors": {"target": "neurotensin receptors", "conditions": "rat brain receptors; read-out: IC50, inhibition of {Trp11}-NT binding; cited from earlier work"}},
  "note": "“Also recorded” adds a separate entry of the source.",
  "data": [
    {"substance": "HSDAVFTDNYXRLZKQLXVKZYLNX ILN [Compound 8]", "values": [
      {"measurement": "Mean RLU", "setting": "VIPR1 (VPAC1); 1.03E−08 M", "result": 13700.0, "unit": "RLU"},
      {"measurement": "Mean RLU", "setting": "VIPR1 (VPAC1); 1.03E−09 M", "result": 13500.0, "unit": "RLU"},
      {"measurement": "Mean RLU", "setting": "VIPR1 (VPAC1); 1.03E−10 M", "result": 9960.0, "unit": "RLU"},
      {"measurement": "Mean RLU", "setting": "VIPR1 (VPAC1); 1.03E−11 M", "result": 10500.0, "unit": "RLU"},
      {"measurement": "Mean RLU", "setting": "VIPR1 (VPAC1); 1.03E−12 M", "result": 10340.0, "unit": "RLU"},
      {"measurement": "Mean RLU", "setting": "VIPR1 (VPAC1); 5.03E−07 M", "result": 112320.0, "unit": "RLU"},
      {"measurement": "Mean RLU", "setting": "VIPR1 (VPAC1); 5.03E−08 M", "result": 96460.0, "unit": "RLU"},
      {"measurement": "Mean RLU", "setting": "VIPR1 (VPAC1); 5.03E−09 M", "result": 13200.0, "unit": "RLU"},
      {"measurement": "Mean RLU", "setting": "VIPR1 (VPAC1); 5.03E−10 M", "result": 9520.0, "unit": "RLU"},
      {"measurement": "activation of VIPR1 (in words)", "setting": "VIPR1 (VPAC1); FIG. 3", "result": "fully activate"},
      {"measurement": "EC50", "setting": "VIPR1 (VPAC1); cAMP readout, 37° C. for 30 minutes, read-out: EC50 (peptide concentration for 50% VIPR1 activation)", "result": 28, "unit": "nM"},
      {"measurement": "activation of / interaction with VIPR2 (in words)", "setting": "VIPR2 (VPAC2)", "result": "not activate; also recorded: does not interact substantially"}
    ]},
    {"substance": "GLP-1: glucagon-like peptide-1, a product of the proglucagon gene, gut hormone (HDEFERHAEGTFTSDVSSYLEGQAAQGFIAWLVKGRG)", "values": [
      {"measurement": "plasma half-life", "setting": "[1]", "result": 2, "unit": "min"}
    ]},
    {"substance": "AC 187", "values": [
      {"measurement": "IC50", "setting": "amylin receptor", "result": 0.48, "unit": "nM"},
      {"measurement": "selectivity over calcitonin receptors", "setting": "calcitonin receptors", "result": 38, "unit": "fold"},
      {"measurement": "selectivity over CGRP receptors", "setting": "CGRP receptors", "result": 400, "unit": "fold"}
    ]},
    {"substance": "Neuromedin N", "values": [
      {"measurement": "IC50", "setting": "neurotensin receptors", "result": 16.7, "unit": "nM"}
    ]}
  ]
}
